According to ChEMBL document CHEMBL3885861, “Open TG-GATES”:

Organism: Rattus norvegicus
Test: Open TG-GATES - Regimen: Single
Type: toxicity, organism-based, Sprague-Dawley
Parameters: regimen Single, gender Male, age 6 weeks
Details: in vivo, po, route gavage; for gamma-GTP / ALP / ALT / AST / BUN / CRE / Ca / Cl / DBIL / GLC / IP / K / LDH / Na / PL / RALB / TBIL / TC / TG / TP: tissue Plasma; for APTT / Bas / Eos / Fbg / Hb / Ht / Lym / MCH / MCHC / MCV / Mono / Neu / PT / Plat / RBC / Ret: tissue Blood; for KIDNEY_L / KIDNEY_R / KIDNEY_TOTAL: tissue Kidney; for LIVER: tissue Liver
[1] = 300 mg/kg, 3 h, dose level Middle
[2] = 300 mg/kg, 6 h, dose level Middle
[3] = 300 mg/kg, 9 h, dose level Middle
[4] = 300 mg/kg, 24 h, dose level Middle
[5] = 1000 mg/kg, 3 h, dose level High
[6] = 1000 mg/kg, 6 h, dose level High
[7] = 1000 mg/kg, 9 h, dose level High
[8] = 1000 mg/kg, 24 h, dose level High

## COc1ccc2[nH]c([S+]([O-])Cc3ncc(C)c(OC)c3C)nc2c1 (configuration not stated) [OMEPRAZOLE]
100 mg/kg, 24 h, dose level Low
  gamma-GTP: 1.2 IU/L
[1]
  TERMINAL_BW: 223.6 g
  APTT: 18.7 s
  Bas: 0%
  Eos: 1%
  Fbg: 216.4 mg/dL
  Hb: 12.4 g/dL
  Ht: 36.4%
  Lym: 73.2%
  MCH: 21.2 pg
  MCHC: 33.9%
  MCV: 62.3 fL
  Mono: 3.4%
  Neu: 22.2%
  PT: 12.7 s
  Plat: 128.9 x10_4/uL
  RBC: 584.6 x10_4/ul
  Ret: 8.2%
  KIDNEY_L: 1 g
  KIDNEY_R: 1 g
  KIDNEY_TOTAL: 1.9 g
  LIVER: 9.8 g
  ALP: 904.2 IU/L
  ALT: 31.8 IU/L
  AST: 67.2 IU/L
  BUN: 10.2 mg/dL
  CRE: 0.4 mg/dL
  Ca: 10.6 mg/dL
  Cl: 100.6 meq/L
  DBIL: 0.064 mg/dL
  GLC: 194.8 mg/dL
  IP: 9.4 mg/dL
  K: 3.9 meq/L
  LDH: 202 IU/L
  Na: 139.6 meq/L
  PL: 146.4 mg/dL
  RALB: 3.3 g/dL
  TBIL: 0.1 mg/dL
  TC: 80.2 mg/dL
  TG: 70.2 mg/dL
  TP: 5.4 g/dL
  gamma-GTP: 1.6 IU/L
[2]
  TERMINAL_BW: 217.5 g
  APTT: 19 s
  Bas: 0%
  Eos: 1%
  Fbg: 216.4 mg/dL
  Hb: 13.1 g/dL
  Ht: 38.3%
  Lym: 74.4%
  MCH: 21.2 pg
  MCHC: 34.3%
  MCV: 61.8 fL
  Mono: 3.8%
  Neu: 20.6%
  PT: 12.9 s
  Plat: 124 x10_4/uL
  RBC: 620.6 x10_4/ul
  Ret: 6.5%
  KIDNEY_L: 1 g
  KIDNEY_R: 1 g
  KIDNEY_TOTAL: 2 g
  LIVER: 9.4 g
  ALP: 913.6 IU/L
  AST: 66 IU/L
  BUN: 10 mg/dL
  CRE: 0.4 mg/dL
  Ca: 10.3 mg/dL
  Cl: 100.8 meq/L
  DBIL: 0.066 mg/dL
  GLC: 192 mg/dL
  IP: 9.7 mg/dL
  K: 4.1 meq/L
  LDH: 171.2 IU/L
  Na: 140 meq/L
  PL: 145.6 mg/dL
  RALB: 3.3 g/dL
  TBIL: 0.1 mg/dL
  TC: 72.8 mg/dL
  TG: 74.4 mg/dL
  TP: 5.5 g/dL
  gamma-GTP: 1.4 IU/L
[3]
  TERMINAL_BW: 218.4 g
  APTT: 22.1 s
  Bas: 0%
  Eos: 1%
  Fbg: 223.8 mg/dL
  Hb: 12.7 g/dL
  Ht: 37%
  Lym: 76.6%
  MCH: 21.4 pg
  MCHC: 34.3%
  MCV: 62.4 fL
  Mono: 3.2%
  Neu: 18.4%
  PT: 12.9 s
  Plat: 117.1 x10_4/uL
  RBC: 593.4 x10_4/ul
  Ret: 6.7%
  KIDNEY_L: 0.9 g
  KIDNEY_R: 0.9 g
  KIDNEY_TOTAL: 1.9 g
  LIVER: 9.1 g
  ALP: 761.6 IU/L
  ALT: 27.6 IU/L
  AST: 62.8 IU/L
  BUN: 8.2 mg/dL
  CRE: 0.3 mg/dL
  Ca: 10.2 mg/dL
  Cl: 101.4 meq/L
  DBIL: 0.068 mg/dL
  GLC: 195.4 mg/dL
  IP: 9.5 mg/dL
  K: 3.9 meq/L
  LDH: 175.8 IU/L
  Na: 140.8 meq/L
  PL: 133.2 mg/dL
  RALB: 3.4 g/dL
  TBIL: 0.1 mg/dL
  TC: 70.4 mg/dL
  TG: 74 mg/dL
  TP: 5.4 g/dL
  gamma-GTP: 0.8 IU/L
[4]
  TERMINAL_BW: 229.5 g
  APTT: 20.6 s
  Bas: 0%
  Eos: 1%
  Fbg: 230.2 mg/dL
  Hb: 13.5 g/dL
  Ht: 39.6%
  Lym: 81.2%
  MCH: 20.6 pg
  MCHC: 34.1%
  MCV: 60.4 fL
  Mono: 3%
  Neu: 14.6%
  PT: 12.7 s
  Plat: 129 x10_4/uL
  RBC: 654.6 x10_4/ul
  Ret: 6.1%
  KIDNEY_L: 1 g
  KIDNEY_R: 1 g
  KIDNEY_TOTAL: 2 g
  LIVER: 11.8 g
  ALP: 1087 IU/L
  ALT: 35 IU/L
  AST: 65.8 IU/L
  BUN: 15.4 mg/dL
  CRE: 0.4 mg/dL
  Ca: 10.3 mg/dL
  Cl: 101 meq/L
  DBIL: 0.1 mg/dL
  GLC: 205.2 mg/dL
  IP: 9.4 mg/dL
  K: 3.8 meq/L
  LDH: 207 IU/L
  Na: 140.8 meq/L
  PL: 146.4 mg/dL
  RALB: 3.3 g/dL
  TBIL: 0.2 mg/dL
  TC: 72 mg/dL
  TG: 139.4 mg/dL
  TP: 5.5 g/dL
  gamma-GTP: 1 IU/L
[5]
  TERMINAL_BW: 220.8 g
  APTT: 18.6 s
  Bas: 0%
  Eos: 1%
  Fbg: 201.8 mg/dL
  Hb: 12.4 g/dL
  Ht: 36.3%
  Lym: 74.8%
  MCH: 21.2 pg
  MCHC: 34.3%
  MCV: 61.9 fL
  Mono: 3%
  Neu: 21%
  PT: 13.3 s
  Plat: 120.5 x10_4/uL
  RBC: 586.6 x10_4/ul
  Ret: 6.8%
  KIDNEY_L: 1 g
  KIDNEY_R: 1 g
  KIDNEY_TOTAL: 2 g
  LIVER: 9.8 g
  ALP: 966.6 IU/L
  ALT: 31.6 IU/L
  AST: 66 IU/L
  BUN: 11.2 mg/dL
  CRE: 0.4 mg/dL
  Ca: 10.2 mg/dL
  Cl: 100.6 meq/L
  DBIL: 0.072 mg/dL
  GLC: 208.8 mg/dL
  IP: 9.2 mg/dL
  K: 4 meq/L
  LDH: 174.6 IU/L
  Na: 140 meq/L
  PL: 140.8 mg/dL
  RALB: 3.3 g/dL
  TBIL: 0.1 mg/dL
  TC: 73.4 mg/dL
  TG: 56.8 mg/dL
  TP: 5.4 g/dL
  gamma-GTP: 0.8 IU/L
[6]
  TERMINAL_BW: 221 g
  APTT: 19.3 s
  Bas: 0%
  Eos: 1.2%
  Fbg: 208.8 mg/dL
  Hb: 12.9 g/dL
  Ht: 37.2%
  Lym: 70.6%
  MCH: 21.5 pg
  MCHC: 34.9%
  MCV: 61.8 fL
  Mono: 4.4%
  Neu: 23.2%
  PT: 13.2 s
  Plat: 129.9 x10_4/uL
  RBC: 602.4 x10_4/ul
  Ret: 7.1%
  KIDNEY_L: 1 g
  KIDNEY_R: 1.1 g
  KIDNEY_TOTAL: 2.1 g
  LIVER: 9.8 g
  ALP: 940.2 IU/L
  ALT: 27 IU/L
  AST: 65.6 IU/L
  BUN: 10 mg/dL
  CRE: 0.4 mg/dL
  Ca: 10.2 mg/dL
  Cl: 100.8 meq/L
  DBIL: 0.072 mg/dL
  GLC: 192.2 mg/dL
  IP: 9.7 mg/dL
  K: 4 meq/L
  LDH: 178.8 IU/L
  Na: 139.8 meq/L
  PL: 145.8 mg/dL
  RALB: 3.3 g/dL
  TBIL: 0.1 mg/dL
  TC: 78.8 mg/dL
  TG: 57 mg/dL
  TP: 5.5 g/dL
  gamma-GTP: 1.2 IU/L
[7]
  TERMINAL_BW: 219.2 g
  APTT: 18.3 s
  Bas: 0%
  Eos: 1%
  Fbg: 228.6 mg/dL
  Hb: 12.8 g/dL
  Ht: 37.1%
  Lym: 75.8%
  MCH: 21.3 pg
  MCHC: 34.6%
  MCV: 61.4 fL
  Mono: 3.4%
  Neu: 19%
  PT: 12.9 s
  Plat: 120.2 x10_4/uL
  RBC: 603.8 x10_4/ul
  Ret: 6.4%
  KIDNEY_L: 1 g
  KIDNEY_R: 1 g
  KIDNEY_TOTAL: 1.9 g
  LIVER: 9.6 g
  ALP: 705 IU/L
  AST: 62 IU/L
  BUN: 8 mg/dL
  CRE: 0.3 mg/dL
  Ca: 10.2 mg/dL
  Cl: 100.8 meq/L
  DBIL: 0.08 mg/dL
  GLC: 195.2 mg/dL
  IP: 10 mg/dL
  K: 3.8 meq/L
  LDH: 174.4 IU/L
  Na: 141 meq/L
  PL: 153.2 mg/dL
  RALB: 3.5 g/dL
  TBIL: 0.1 mg/dL
  TC: 80.4 mg/dL
  TG: 59.8 mg/dL
  TP: 5.5 g/dL
  gamma-GTP: 0.6 IU/L
[8]
  TERMINAL_BW: 226 g
  APTT: 19.9 s
  Bas: 0%
  Eos: 1%
  Fbg: 207.8 mg/dL
  Hb: 12.9 g/dL
  Ht: 37.7%
  Lym: 81.4%
  MCH: 21 pg
  MCHC: 34.1%
  MCV: 61.6 fL
  Mono: 4%
  Neu: 13.4%
  PT: 13.1 s
  Plat: 129.5 x10_4/uL
  RBC: 613.8 x10_4/ul
  Ret: 6.2%
  KIDNEY_L: 1 g
  KIDNEY_R: 1 g
  KIDNEY_TOTAL: 2.1 g
  LIVER: 12.1 g
  ALP: 924 IU/L
  ALT: 32.6 IU/L
  AST: 64.8 IU/L
  BUN: 11.2 mg/dL
  CRE: 0.4 mg/dL
  Ca: 10.1 mg/dL
  Cl: 100.6 meq/L
  DBIL: 0.1 mg/dL
  GLC: 200.4 mg/dL
  IP: 9.2 mg/dL
  K: 4.2 meq/L
  LDH: 230 IU/L
  Na: 140.6 meq/L
  PL: 162.8 mg/dL
  RALB: 3.4 g/dL
  TBIL: 0.2 mg/dL
  TC: 83.4 mg/dL
  TG: 169.2 mg/dL
  TP: 5.4 g/dL
  gamma-GTP: 1 IU/L
